Legend:
[1] = tested on: U-251 cells; experiment: Hoechst viability assay, U-251 glioma cells; type: cell-based, human
Protocol: (§1) Cells (in quadruplicate) at the specified density were suspended in 200 μL medium supplemented with 10% FCS seeded in 96-well plates for 24 hours, then exposed to the drugs for 72 hours. The viability of the cells was determined by Hoechst fluorescent assay as described by Nudelman et al., 2005. Leukemic cell viability after 72 hours of treatment was determined by an MTT (3-(4,5-dimethylthiazol-2-yl)-2,5-diphenyltetrazolium bromide) assay as described by Levovich et al., 2007.
(§2) IC50 values were determined by linear regression of the percentage of survival following drug titration.

[2] = tested on: MCF-7 cells; experiment: Hoechst viability assay, MCF-7 breast carcinoma cells; type: cell-based, human
Protocol: as §1, §2

[3] = tested on: phospho-H2AX (Ser139); experiment: Phospho-H2AX Western blot, U-251 cells; type: cell-based, human; conditions: 60 μM, 0.5, 2 or 24 hours, peak after 2 hours
Protocol: Cell lysates or acid extracted histones were solubilized in a concentrated (×4) loading buffer (62.5 mM Tris-HCl, pH 6.8, 1% SDS, 10% glycerol v/v, 1% dithiothreitol (DTT) and 0.1 mg/ml bromophenol blue). Proteins (10-40 μg) were run on SDS-PAGE, transferred to a nitrocellulose membrane (Schleicher & Schuell, Germany) and probed with the primary antibodies, followed by incubation with a horseradish peroxidase (HRP)-goat anti-rabbit IgG or HRP-rabbit anti-mouse IgG as secondary antibodies. HRP bound to the secondary antibodies was visualized by the enhanced chemiluminescence method using the Western Blotting Luminol reagent (Santa Cruz, Calif., USA). The membrane was exposed for 5 minutes to Chemiluminescence BioMax light film (Kodak, USA) and the intensity of the bands was measured with a VersaDoc instrument with a Quantityl program (Bio-Rad, USA). The fold increase of each specific protein was determined by the ratio of band intensities of treated and untreated cells, normalized to loading control (actin or total histone H3).

[4] = tested on: U-251 cells; experiment: Reactive oxygen species by DCF-DA FACS, U-251 cells; type: cell-based, human; conditions: 2 hour treatment
Protocol: ROS levels were determined by FACS analysis of U-251 cells treated with dichlorodihydrofluorescein diacetate (DCF-DA), which becomes fluorescent when oxidized.

[5] = target: T1, proteasome (Homo sapiens, UniProt P28074); experiment: Proteasome activity assay, U-251 cells; type: cell-based; conditions: U-251, 50 μM
T1 construct: proteasome activity in U-251 cells treated for 4 or 24 hours; endogenous in cells; host or cells: U-251 cells (lysates of treated cells)
T1 sequence (P28074 60-263): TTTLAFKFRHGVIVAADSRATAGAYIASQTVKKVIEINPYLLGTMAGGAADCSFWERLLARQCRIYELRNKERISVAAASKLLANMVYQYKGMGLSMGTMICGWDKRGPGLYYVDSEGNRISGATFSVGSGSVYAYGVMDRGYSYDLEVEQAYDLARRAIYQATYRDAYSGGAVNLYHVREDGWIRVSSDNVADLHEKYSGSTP
Protocol: The peptidase or chymotrypsin-like activity of the proteasome was assayed using N-succinyl-Leu-Leu-Val-Tyr-7-amido-4-methylcoumarin. The lysates (100 μL) were incubated with 13 (M of the substrate in 100 mM Tris, pH 7.5, for 1 hour with shaking at room temperature. The reaction was stopped by addition of ice-cold ethanol, and the samples were centrifuged for 5 minutes at 2500 g. The supernatants were collected and the fluorescence was measured with excitation/emission filters of 390/460 nm using the FluoStar fluorimeter. The protein concentration was determined using a BCATM kit (Pierce) and the proteasome activity was derived from the ratio of fluorescence at 460 nm/(g of protein. The percentage of proteasome activity was calculated relative to untreated cells.

[6] = tested on: acetylated histone H4; experiment: Histone H4 acetylation Western blot, U-251 cells; type: cell-based, human; conditions: 2-4 hours of treatment
Protocol: (§3) For the determination of in vitro histone acetylation, 2.5-3×10^6 cells, seeded in 100 mm culture dishes, were supplemented with RPMI medium containing 10% heat inactivated FCS and were treated with the drugs the following day. At the specified times post-treatment, the cells were removed with a rubber policeman, centrifuged, washed, lysed with lysis buffer (PBS, Nonidet® NP-40 1%, sodium deoxycholate 0.5%, sodium dodecyl sulfate (SDS) 0.1%, 1 mM phenylmethylsulfonyl fluoride (PMSF), 1 mM sodium orthovanadate, and 1 μM each of leupeptin and pepstatin) and centrifuged at 10,000 g for 10 minutes at 4° C. […] The extract was then lyophilized, and protein concentration was determined with a BCA kit (Pierce, USA). […] The fold increase of acetylated histones was determined by the ratio of band intensities of treated and untreated cells or mice, normalized to loading control (total histone H3).
(§4) Cell lysates or acid extracted histones were solubilized in a concentrated (×4) loading buffer (62.5 mM Tris-HCl, pH 6.8, 1% SDS, 10% glycerol v/v, 1% dithiothreitol (DTT) and 0.1 mg/ml bromophenol blue). […] The membrane was exposed for 5 minutes to Chemiluminescence BioMax light film (Kodak, USA) and the intensity of the bands was measured with a VersaDoc instrument with a Quantityl program (Bio-Rad, USA). […]

[7] = tested on: kinases which phosphorylate acyclovir; experiment: Acyclovir phosphorylation (viral thymidine kinase activity) in 4T1 cell extracts; type: cell-based, murine; conditions: 4T1 cells, 24 hours, 40 μM
Protocol: The mammalian thymidine kinase (TK) has a narrow specificity and acts only on thymidine. […] The lysates obtained were kept at −70 ° C. until analyzed either spectroscopically or by RT-PCR. […] The ADP is converted to ATP by pyruvate kinase when it hydrolyzes phosphoenolpyruvate (PEP) to pyruvate. Lactate dehydrogenase then converts pyruvate to lactate and NADH to NAD^+. The decrease in fluorescence emitted by NADH (excitation/emission of 320/460 nm) during 10 cycles, each lasting 1 minute, were monitored using a FluoStar fluorometer. The reaction velocity was determined by the slope of the fluorescence vs. time.

[8] = tested on: rat primary cardiomyocytes; experiment: ROS production (DCF-DA) in rat primary cardiomyocytes; type: cell-based
Protocol: Neonatal rat ventricular cardiomyocytes were isolated and cultured in collagen coated culture dishes as described by Shalitin et al., 1996. Growth medium contained DMEM:Ham's F12 (1:1), fetal calf serum (10%) and antibiotics. Treatment was administered to spontaneously beating cardiomyocytes 48 hours after plating.

[9] = Acute toxicity assay in mice; type: in vivo; conditions: male, mouse, in vivo; single per os dose, ICR mice
Text: (§5) Male ICR mice, 8 weeks old (Harlan, Israel) were acclimated for 10 days before administration of the tested compounds. The animals were monitored for two weeks and weighed three times per week.

[10] = tested on: ICR mice; experiment: Acute toxicity assay in mice; type: in vivo; conditions: 2 weeks
Text: as §5

[11] = tested on: acetylated histone H4; experiment: In vivo histone H4 acetylation in 4T1 tumors (Western blot); parameters: species or system mice; conditions: 100 mg/kg each, 4 hours after treatment, vs vehicle
Protocol: as §3, §4

## CCCC(CCC)C(=O)Nc1nc2c(ncn2COCCOC(=O)C(CCC)CCC)c(=O)[nH]1 [Compound 6, N-valproyl-9-(2-valproyloxy)ethoxymethylguanine]
[1]
  activity relative to acyclovir: > 100 fold
[1]; Homo sapiens, 72 hours, Hoechst, read-out: IC50
  IC50: 32 ± 2 µM
[2]; 400 μM NAC, FIG. 3b
  effect of N-acetylcysteine (NAC) on the activity of the compound: did not reduce the activity
[2]; MCF-7 cells, Hoechst
  IC50 fold lower than that of VA: over 20 fold
[2]; MCF-7 cells, Hoechst, acyclovir:VA 1:2
  IC50 fold lower than that of the mixture of VA and acyclovir: over 50 fold
[3]
  level of phosphorylated H2AX: induced an increase in the level of phosphorylated H2AX
[4]
  level of oxidation in cells (ROS): considerably increased the level of oxidation in cells
[5]; after 4 hours
  inhibition at 50 µM: > 50%
[5]; after 24 hours
  inhibition at 50 µM: > 75%
[6]
  acetylation of histone H4: induced acetylation of H4
[7]
  rate of acyclovir phosphorylation (kinase activity): increased the rate of acyclovir phosphorylation in a significant and reproducible manner
[8]; 4 hours
  production of reactive oxygen radicals (ROS): did not increase production of reactive oxygen radicals
[8]; combined with 2 μM Dox
  effect on ROS production induced by Dox: prevented the formation of ROS
[9]
  LD50 at 2 weeks: > 750 mg/kg
[10]; single per os dose 150 mg/kg
  Survival (%): 100%
[10]; single per os dose 200 mg/kg
  Survival (%): 100%
[10]; single per os dose 250 mg/kg
  Survival (%): 91.8%
[10]; single per os dose 500 mg/kg
  Survival (%): 100%
[10]; single per os dose 750 mg/kg
  Survival (%): 100%
[11]
  levels of acetylated H4 in tumors: significantly higher levels of acetylated H4
